# Assay results as given in paper PMC10951340, “Two DOT1 enzymes cooperatively mediate efficient ubiquitin-independent histone H3 lysine 76 tri-methylation in kinetoplastids” (Nature Communications, 2024).
# T1: full-length DOT1A (Trypanosoma brucei, UniProt Q581Z0)
# T1 construct: full length (295 residues), Sf9 cells, His6-tag cut with PreScission
# T1 sequence (Q581Z0 1-295): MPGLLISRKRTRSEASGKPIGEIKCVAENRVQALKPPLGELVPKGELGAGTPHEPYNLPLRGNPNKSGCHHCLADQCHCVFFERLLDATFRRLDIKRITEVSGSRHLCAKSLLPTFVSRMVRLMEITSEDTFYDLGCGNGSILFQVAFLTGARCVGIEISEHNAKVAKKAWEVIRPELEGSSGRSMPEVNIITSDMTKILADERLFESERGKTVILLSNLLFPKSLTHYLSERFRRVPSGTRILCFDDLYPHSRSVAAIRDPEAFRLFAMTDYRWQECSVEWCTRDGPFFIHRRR
# T2: DOT1A full-length (Trypanosoma brucei strain Lister 427, UniProt Q581Z0 1-295)
# T2 sequence: T1 sequence (Q581Z0 1-295)
# T3: Δ42-DOT1A (Trypanosoma brucei strain Lister 427, UniProt Q581Z0 43-295)
# T3 sequence: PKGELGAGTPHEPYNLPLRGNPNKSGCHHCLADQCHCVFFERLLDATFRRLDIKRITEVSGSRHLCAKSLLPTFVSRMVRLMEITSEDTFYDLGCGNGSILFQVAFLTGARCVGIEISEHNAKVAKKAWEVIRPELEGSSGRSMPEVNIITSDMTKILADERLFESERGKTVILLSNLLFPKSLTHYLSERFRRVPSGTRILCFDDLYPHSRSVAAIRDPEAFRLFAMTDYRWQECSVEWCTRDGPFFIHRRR
# B1: FAM-dsDNA probe (dsDNA)
# DNA 1: CTACAGTTCGTCAGGATTCC
# DNA 2: CCGGAATCCTGACGAACTGTAG
# Legend:
# [1] = target: T4, Δ42-DOT1A (Trypanosoma brucei, UniProt Q581Z0); test: X-ray crystal structure of the complex ([…] and […] Å); assay type: binding; design: residues 43-295, E. coli, His6-tag cut with PreScission; conditions: active site; co-crystallised with twofold molar excess
# [2] = target: T4, Δ42-DOT1A; conditions: pH 8.5, on ice, 254 nm 1 h; covalent photo-cross-link; labelled compound
# [3] = target: T1, full-length DOT1A; test: 3H-methyl incorporation into nucleosome; quantitative MS of H3K76; assay type: biochemical; conditions: co-substrate T. brucei nucleosome, pH 8.5, 25 °C; labelled compound
# [4] = target: Δ27-DOT1B (Trypanosoma brucei, UniProt Q4GZF2); conditions: co-substrate T. brucei nucleosome, pH 8.5, 25 °C; labelled compound
# Chain of Δ27-DOT1B (Q4GZF2 entry or part of it, stated change not applied): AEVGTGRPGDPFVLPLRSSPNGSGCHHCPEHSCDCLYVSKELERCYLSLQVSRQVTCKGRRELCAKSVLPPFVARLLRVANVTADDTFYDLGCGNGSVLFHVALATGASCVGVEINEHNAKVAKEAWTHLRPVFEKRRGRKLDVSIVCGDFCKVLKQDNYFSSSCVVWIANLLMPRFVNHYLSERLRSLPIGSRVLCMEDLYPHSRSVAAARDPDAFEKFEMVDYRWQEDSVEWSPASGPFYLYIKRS
# [5] = target: DOT1L (1-420) (human, UniProt Q8TEK3 1-420); test: fluorescence polarization; n = 2; FP: 5 nM probe, 100 mM NaCl, 20 mM Tris-HCl pH 7.5, 5% glycerol, 0.5 mM TCEP, 25 °C, 10 min; footprinting at ambient temperature; conditions: protein: recombinant; tags: His6 cleaved (PreScission); label: 5'-FAM on strand 1; 5' overhang 2 nt (CC) on strand 2
# Chain of DOT1L (1-420) (Q8TEK3 1-420): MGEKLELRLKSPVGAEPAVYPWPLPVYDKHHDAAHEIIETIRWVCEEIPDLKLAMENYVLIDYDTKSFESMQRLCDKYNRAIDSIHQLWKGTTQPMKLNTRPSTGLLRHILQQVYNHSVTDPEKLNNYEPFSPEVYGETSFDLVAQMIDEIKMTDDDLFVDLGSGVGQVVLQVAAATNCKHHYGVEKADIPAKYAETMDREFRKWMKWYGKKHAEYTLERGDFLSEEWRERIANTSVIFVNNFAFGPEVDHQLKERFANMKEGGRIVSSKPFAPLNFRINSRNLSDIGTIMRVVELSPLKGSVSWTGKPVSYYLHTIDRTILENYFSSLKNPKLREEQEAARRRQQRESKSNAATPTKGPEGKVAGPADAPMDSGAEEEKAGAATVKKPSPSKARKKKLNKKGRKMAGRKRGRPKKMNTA
# [6] = target: T2, DOT1A full-length; test: fluorescence polarization; n = 1; FP: 5 nM probe, 100 mM NaCl, 20 mM Tris-HCl pH 7.5, 5% glycerol, 0.5 mM TCEP, 25 °C, 10 min; footprinting at ambient temperature; conditions: protein: recombinant; tags: His6 cleaved (PreScission); label: 5'-FAM on strand 1; 5' overhang 2 nt (CC) on strand 2
# [7] = target: T3, Δ42-DOT1A; test: fluorescence polarization; not detectable; n = 1; FP: 5 nM probe, 100 mM NaCl, 20 mM Tris-HCl pH 7.5, 5% glycerol, 0.5 mM TCEP, 25 °C, 10 min; footprinting at ambient temperature; conditions: protein: recombinant; tags: His6 cleaved (PreScission); label: 5'-FAM on strand 1; 5' overhang 2 nt (CC) on strand 2
molecule,measurement,setting,value
Nc1ncnc2c1ncn2[C@@H]1O[C@H](CSCC[C@H](N)C(=O)O)[C@@H](O)[C@H]1O [AdoHcy],X-ray crystal structure of the complex (2.1 and 1.9 Å),[1],Δ42-DOT1A crystallized in complex with the methyl donor product AdoHcy in two different crystal forms
C[S+](CC[C@H](N)C(=O)O)C[C@H]1O[C@@H](n2cnc3c(N)ncnc32)[C@H](O)[C@@H]1O (stereo partly shown) [AdoMet],"UV cross-linking of [methyl-3H]AdoMet, SDS-PAGE fluorography",[2],AdoMet binding analyzed by cross-linking experiments showing Coomassie stain (middle) and fluorography (bottom)
same,3H-methyl incorporation into nucleosome; quantitative MS of H3K76,[3],"Methyltransferase activity of full-length DOT1A, Δ42-DOT1A, and Δ27-DOT1B toward the recombinant T. brucei nucleosome"
same,3H-methyl incorporation into nucleosome; quantitative MS of H3K76,[4],Δ27-DOT1B showed significant methyltransferase activity by measuring tritium incorporation from [methyl-^3H] AdoMet in vitro
B1,Kd,[5],110 ± 20 nM
same,Kd,[6],900 ± 200 nM
same,binding result,[7],no binding
